Measurements published in a melting point compilation (Tetko et al.; mined from patent text by program, amines drawn as free bases though some values may be those of a salt).

SMILES | melting point
CC(C)c1cc(O)cc(C(C)C)c1NC(=O)CN1CCN(CCCSc2nc3ccccc3o2)CC1 | 201 to 203 °C
CC(=O)COC(=O)C=CC(=O)OCC(C)=O | 121 to 123 °C
CNC(=O)c1cc2c(Oc3ccc(-n4cccn4)cc3)cncc2s1 | 192 to 194 °C
O=c1c2c(n(-c3ccccc3)c3ncccc13)OCC2 | 245 to 247 °C
C[C@@H](N)CNc1ccnc2cc(Cl)ccc12 | 145 °C
O=C(Nc1ccc(F)nc1)c1cccc(-c2cccc3oc(Cc4cccc(C(F)(F)F)c4)cc23)c1 | 117 to 118 °C
O=S(=O)(Nc1ncnc(Cl)c1Cc1ccc2ccccc2c1)c1ccc(Cl)cc1 | 197 to 199 °C
O=C1CCC(c2ccccc2)(c2ccccc2)[C@@H]2CN(C(=O)Cc3cccs3)C[C@H]12 (racemic) | 206 °C
C#CCOc1c(OC)cc(/C=C/C(=O)/C=C/c2cc(OC)c(OCC#C)c(OC)c2)cc1OC | 162 to 164 °C
CCc1nc(Cl)c2sccc2n1 | 46 to 48 °C
Cc1ccc(C)c2c(=O)oc(=O)[nH]c12 | 295 to 298 °C
Cc1cc(Oc2cccc(C(F)(F)F)c2)nn1C(=O)Nc1ccc(F)c(F)c1F | 102 to 104 °C
CCOc1ccc2c(c1)C(c1ccccc1)C(=O)N2 (stereo not drawn) | 125 to 130 °C
COC(=O)C(C)(C)CCCOc1cc(C)c(OC(=O)Nc2c(C(C)C)cccc2C(C)C)cc1C | 111 to 112 °C
O=S1(=O)NC(c2ccccc2)Nc2ccccc21 (stereo not drawn) | 126 to 128 °C
CCOC(=O)c1cnoc1-c1cc(Cl)c(Cl)s1 | 120 to 121 °C
COC(=O)c1cc(CCCNCc2ccccc2)ccc1OCc1ccccc1 | 75 to 77 °C
CCNc1cc(C(C)=O)ccn1 | 55 to 57 °C
Cn1nc2c(-c3ccc(Cl)cc3Cl)cccc2c1-n1ccnc1 | 63 to 89 °C
Cc1cc2cccc(N=C3SC[C@@H]4Cc5ccccc5CN34)c2cn1 | 156 °C
COc1ccc(-c2ccccc2-c2ccc(S(N)(=O)=O)cc2)cc1Cl | 180 °C

SMILES | melting point
CC(C)=NOCc1nc2c(N)nc(C)c(C)c2n1CCCCNC(=O)c1ccccc1 | 206 to 208 °C
C=CCC1NC(=O)C1C(C)(C)O (stereo not drawn) | 144 °C
O=[N+]([O-])c1c(C(F)(F)F)cc(OCc2ccccc2)cc1C(F)(F)F | 141 to 143 °C
CCOC(=O)C1=C(C)NC(=S)N(S(C)(=O)=O)C1c1cccc([N+](=O)[O-])c1 (stereo not drawn) | 161 to 163 °C
C[C@H](N)Cn1ncc2ccc3oc(C(=O)NCC(C)(C)CO)cc3c21 | 103 °C
Cc1c(Br)nc(Nc2ccc(C#N)cc2)c(=O)n1C | 254 to 255 °C
O=C(Nc1ccc(-n2nc(C(F)(F)F)cc2C(F)(F)F)cc1)c1ccccc1C(=O)c1ccccc1 | 204 to 205 °C
O=C(CCc1ccc([N+](=O)[O-])cc1)NCCO | 122 to 125 °C
O=C1c2cc(O)ccc2N(Cc2ccccc2)C2=NCCN12 | 225 to 227 °C
CC(=O)SC(CC(=O)c1ccccc1Cl)C(=O)O (stereo not drawn) | 115 to 116 °C
COC(=O)CCCc1cc2nc(Cl)ccc2n1S(=O)(=O)c1ccc(C)cc1 | 106 °C
CCCC(C)(Oc1ccc(CC(=O)Nc2cc(C)cc(C)c2)cc1)C(=O)O (stereo not drawn) | 145 to 147 °C
O=C(O)C=CC1(Cc2ccccc2)C=CC=C(c2ccccc2)C1 (stereo not drawn) | 165 to 174 °C
O=C(O)CCCCCCCCc1ccc(O)cc1 | 103 to 105 °C
Clc1cc2c(cc1Br)C(=C1CCNCC1)c1ncccc1CO2 | 198 to 199 °C
CC1(O)OC(=O)C(c2c(F)cc(F)cc2F)=C1c1ccc2ccccc2c1 (stereo not drawn) | 164 to 165 °C
CCCn1c(=O)c2[nH]c(CC34CC5CC(CC(C5)C3)C4)nc2n(CCC)c1=O | 178 to 180 °C
CCOP(=O)(/C=C/c1cn(-c2ccccc2)nc1OCc1ccc(OCc2nc(-c3ccco3)oc2C)cc1)OCC | 131 to 132 °C
O=C1CC(=O)C(CCCCCCCO)C1=O (stereo not drawn) | 121 to 124 °C
COc1cc2ncc(C#N)c(Nc3ccc(Cl)c4ccccc34)c2cc1OC | > 250 °C
COc1ccccc1C=CC(=O)C1=C(O)C(=C(C)Nc2ccccc2N)C(=O)OC1=O | 148 to 150 °C

SMILES | melting point
Cc1cc(Nc2cc(-c3cnc4cc[nH]c4c3)cn3ccnc23)nn1CCO | 127 to 130 °C
CC1(C)OC(=S)Nc2ccc(-c3coc(C#N)c3)cc21 | 214 to 216 °C
CC(=O)N1c2ccccc2Sc2cc(O)c3ccccc3c21 | 230 °C
C/C(=C\Cn1oc(=O)[nH]c1=O)c1ccc2oc(Cc3nc(-c4ccccc4)oc3C)cc2c1 | 81 to 83 °C
Cc1cccc(NC(=O)c2ccccc2)c1Cl | 125 to 126 °C
CC1CC(Nc2nnc(-c3cccc(Oc4ccc(C(C)(C)C)cc4)c3)s2)CC(C)(C)C1 (stereo not drawn) | 166 to 167 °C
ON=C1CCN(C2c3ccccc3COc3ccc(Br)cc32)CC1 (stereo not drawn) | 223 to 225 °C
CNC(=O)Cn1nnnc1S | 167 to 168 °C
CS(=O)(=O)c1ccc(C(Br)C(=O)c2ccc(F)cc2)cc1 (stereo not drawn) | 140 to 141 °C
OCCCCCCC(O)C(c1ccc(Cl)cc1Cl)n1ccnc1 (stereo not drawn) | 74 to 76 °C
Cc1nc(C)c2c(n1)N(Cc1ccc(-c3ccccc3-c3nnn[nH]3)cc1)C(=O)C2 | 228 to 229 °C
Cc1[nH]c2cccc(/C=C/C(=O)OCc3ccccc3)c2c1Cc1cccnc1 | 180 to 182 °C
NCC1Cc2cccc(-c3ccccc3C(F)(F)F)c2O1 (stereo not drawn) | 109 to 111 °C
CCC(Cl)c1ccc(CCNS(=O)(=O)c2ccc(Cl)cc2)cc1 (stereo not drawn) | 90 to 91 °C
FC(F)(F)c1cccc(C2=CCNc3ccnn32)c1 | 61 to 64 °C
CCOC(=O)c1ccc(N)c(C(CCNC(=O)OC(C)(C)C)=NOC(C)=O)c1 | 130 to 135 °C
CCn1ncc2c1ncc1c(N3CCN(C)CC3)nc3cc(C)nn3c12 | 167 to 169 °C
Nc1ncnc2sc(Cc3cccnc3)c(-c3ccc(NC(=O)Nc4cccc(Cl)c4)cc3)c12 | 169 to 172 °C
O=C(Nc1cc(Cl)cc(Cl)c1)c1cc(Br)cc(Br)c1O | 181 to 182 °C

Now from value to molecule:

melting point | SMILES
185 to 186 °C | CC1=CC(O)C(OC(=O)c2ccc(N)cc2N)C(C)(C)CC1=O (stereo not drawn)
125 to 127 °C | COCc1nccc(=O)[nH]1
94 to 96 °C | COc1cc(CNc2ccc(C)cc2)cc(OC)c1OC
194 to 195 °C | COc1cc(OC)c(-c2cccs2)cc1/C=C/C(=O)c1ccc(S(=O)(=O)Nc2ccc(F)cn2)cc1
74 to 76 °C | C#CCn1c2c(c3ccccc31)CCCC2
234 to 235 °C | CCC[C@H]1CC[C@H](c2ncc(C(N)=O)cn2)CC1
104 to 106 °C | CCOC(=O)NCc1ccc2[nH]cc(CC#N)c2c1
115 to 120 °C | CN1CCC(N(CCN2CCCC2)C(=O)c2ccc(Nc3nccc(Nc4ccc(C(F)(F)F)cc4)n3)cc2)CC1
137 to 139 °C | CN1C(=O)C2CC2(c2ccc(N)cc2)C1=O (stereo not drawn)
106 to 107 °C | CS(=O)(=O)Nc1ccccc1OCCCN1CCC(OC(c2ccccc2)c2ccccc2)CC1
120 °C | CS(=O)(=O)c1cc(OCC(O)CNC2CCC(c3ccc(C(=O)N4CCC(C(O)c5ccccc5)CC4)cc3)CC2)ccc1O (stereo not drawn)
240 to 241 °C | COC(=O)[C@]1(C)Cc2c([nH]c3ccc(Br)cc23)[C@@H](c2cccc(O)c2)N1 (racemic)
45 °C | CCCCc1nc(Sc2ccccc2)c(CO)[nH]1
64 to 66 °C | CCOC(=O)C(C)(C)OC(=O)c1cc([N+](=O)[O-])ccc1Cl
168 to 169 °C | COc1cc2c(cc1OC)CC1(CC2)NC(=O)CC(C)C1=O (stereo not drawn)
81.5 to 82.5 °C | COc1ccc(-c2nnsc2-c2ccccc2)cc1
160 to 162 °C | COc1c(C2CCN(CCCCNC(=O)c3oc(-c4ccc(C#N)cc4)nc3CO)CC2)ccc2c1CCCC2
64 °C | CC[C@H](NS(=O)(=O)c1ccc(OC)cc1)C(=O)OC
80 to 83 °C | COc1ccc2c(c1)C(CC(=O)O)CCO2 (stereo not drawn)
194 to 196 °C | CC(C)(O)c1cc2cc(OCC(=O)O)c(Cl)c(Cl)c2s1
96 to 99 °C | COc1ccc(C(=O)O)nc1OC1CCCC1

melting point | SMILES
141 to 143 °C | CCNC(=O)N(O)CC#Cc1cccc(C2=N[C@H](c3ccccc3)CO2)c1
71 to 73 °C | CCOC(=O)c1c(-c2cccc(Cl)c2)noc1C
286 to 290 °C | Cn1cc2c(O)c(C(=O)c3ccccc3)cnc2n1
174 to 175 °C | COC(=O)NN[C@@H]1c2cc(C#N)ccc2OC(C)(C)[C@H]1O (relative stereo)
86 to 88 °C | CCOc1cc(C(=CC#N)c2ccc(OC)c(C)c2)ccc1OC
275 °C | CCOC(=O)c1cnc2[nH]ncc2c1O
201 to 202 °C | Cc1cccc2sc(COc3ccc(F)c(C(N)=O)c3F)nc12
200 °C | COc1ccc(OC)c(S(=O)(=O)n2c(COC(C)(C)C(=O)O)cc3nc(Cl)ccc32)c1
148 to 149 °C | CCN(CC)CCNC(=O)c1cc(Cl)c(NS(=O)(=O)c2ccc3ccccc3c2)cc1OC
128 to 130 °C | CCOC(=O)C1=C(COCC#N)NC(C)=C(C(=O)OC)C1c1ccccc1Cl (stereo not drawn)
60 to 61 °C | CC(C)OC(=O)COc1ccc(C(=O)CBr)cc1
124 °C | Nc1c(Cl)cc(C(=O)NCCC23CCCN2CCC3)c2c1CCO2
89 to 90 °C | CCOC(=O)Cc1ccccc1Oc1ccc(COc2cc(CC)nc3c2CCCC3)cc1
119 to 121 °C | COC(=O)CCC#Cc1ccc(O)c(CCC(=O)OC)n1
169 to 174 °C | CS(=O)(=O)c1cc(C(=O)O)ccc1Oc1ccc(C(O)CSc2ccccn2)cc1 (stereo not drawn)
71 to 72 °C | O=C(CN1CCNCC1)Nc1ccccc1
130 °C | OC(CN1CCCCC1)c1cc(C(F)(F)F)nc2c(C(F)(F)F)cccc12 (stereo not drawn)
117 to 118 °C | CC(C)(C)OC(=O)c1ccc(C(=O)OC(C)(C)C)cc1
218 °C | CCOC(=O)N1CCN(c2ccc(OC[C@H]3CCn4cc([N+](=O)[O-])nc4O3)cc2)CC1
146 to 147 °C | COc1ccc(CC#N)cc1S(=O)(=O)NC(C)(C)C
225 °C | COc1cc(-c2ccc3cc4c(cc3c2C=O)OCO4)c([N+](=O)[O-])cc1OC
